This is an account of results in patent publication US12577247B2 (BUGWORKS RESEARCH, INC., priority 2021, dated 2026).

Molecules are shown by their SMILES.

Experiment [1] deals with T1, A2B receptor (Homo sapiens, UniProt P29275).
T1 sequence (P29275 1-332): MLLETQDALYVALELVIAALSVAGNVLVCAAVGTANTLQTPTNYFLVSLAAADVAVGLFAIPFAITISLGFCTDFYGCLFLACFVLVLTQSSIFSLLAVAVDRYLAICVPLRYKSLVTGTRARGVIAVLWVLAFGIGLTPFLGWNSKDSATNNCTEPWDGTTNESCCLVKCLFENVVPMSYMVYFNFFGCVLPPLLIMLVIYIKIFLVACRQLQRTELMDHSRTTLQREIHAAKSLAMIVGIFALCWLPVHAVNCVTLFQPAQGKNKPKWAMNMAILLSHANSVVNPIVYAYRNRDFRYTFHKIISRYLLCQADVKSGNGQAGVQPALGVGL
Description: A2bR antagonism IC50, cAMP TR-FRET in HEK-293 cells, high concentration of adenosine (30 μM).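 Further: compounds preincubated 10 min with cells, then adenosine stimulation 30 min at room temperature in buffer with Rolipram 100 µM and EHNA 30 µM, TR-FRET read after 1 h.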 Conditions: A2BR IC50 (nM) (@30 μM Adenosine), HEK-293 cells expressing A2B receptor; agonist adenosine 30 μM; 2% HSA; inhibition of cAMP. Background: Time-resolved FRET reads energy transfer from a long-lived donor to a nearby acceptor.

Experiment [2] deals with T2, A2A receptor (Homo sapiens, UniProt P29274).
T2 construct: host or cells: HEK-293
T2 sequence (P29274 whole entry): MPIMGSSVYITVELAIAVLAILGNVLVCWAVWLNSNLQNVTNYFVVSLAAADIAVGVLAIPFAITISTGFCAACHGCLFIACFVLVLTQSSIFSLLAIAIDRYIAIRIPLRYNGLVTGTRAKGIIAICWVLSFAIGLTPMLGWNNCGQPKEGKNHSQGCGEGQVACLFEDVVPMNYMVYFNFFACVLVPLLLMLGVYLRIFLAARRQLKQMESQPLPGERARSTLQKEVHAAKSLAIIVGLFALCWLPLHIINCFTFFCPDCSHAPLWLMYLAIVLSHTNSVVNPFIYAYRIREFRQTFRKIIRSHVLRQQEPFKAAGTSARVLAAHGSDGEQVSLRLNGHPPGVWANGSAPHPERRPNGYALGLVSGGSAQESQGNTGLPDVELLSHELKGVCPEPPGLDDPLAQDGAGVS
Put plainly: A2aR antagonism IC50, cAMP TR-FRET in HEK-293 cells, high concentration of adenosine (30 μM).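 Further: compounds added 10 min before adenosine, then 30 min stimulation at room temperature in buffer with 100 µM rolipram and 30 µM EHNA, signal read 1 h after detection reagents.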 It counts as cell-based. Conditions: HEK-293 cells expressing A2A receptor; agonist adenosine 30 μM; 2% HSA; inhibition of cAMP; read-out: A2AR IC50 (nM) (@30 μM Adenosine).

The IC50 is the concentration that inhibits the measured activity by half.

For `Cc1nn2c(N)c(C#N)c(NCCc3cc(C)n(C4(CO)CC4)n3)nc2c1Cl` [Example 75, 7-amino-3-chloro-5-((2-(1-(1-(hydroxymethyl)cyclopropyl)-5-methyl-1H-pyrazol-3-yl)ethyl)amino)-2-methylpyrazolo[1,5-a]pyrimidine-6-carbonitrile], the IC50 stood at 7150 nM in experiment [1] and 43 nM in experiment [2].
Take `CCc1c(C)nn2c(N)c(C#N)c(NCCc3cccn(CCC[S+](C)[O-])c3=O)nc12` (single isomer, unassigned; (+)) [Example 154b, (+)-7-amino-3-ethyl-2-methyl-5-((2-(1-(3-(methylsulfinyl)propyl)-2-oxo-1,2-dihydropyridin-3-yl)ethyl)amino) pyrazolo[1,5-a]pyrimidine-6-carbonitrile]: the 50% inhibitory concentration (IC50) in experiment [1] worked out at 1410 nM; in experiment [2], 1010 nM.
In the case of `CCc1c(C)nn2c(N)c(C#N)c(NCCc3cccn(CCCSC)c3=O)nc12` [Example 153, 7-amino-3-ethyl-2-methyl-5-((2-(1-(3-(methylthio)propyl)-2-oxo-1,2-dihydropyridin-3-yl)ethyl)amino)pyrazolo[1,5-a]pyrimidine-6-carbonitrile], the figures for the concentration for half-maximal inhibition (IC50) in experiment [1] and in experiment [2] were 1190 nM and 195 nM, respectively.
Consider `CCCc1c(C)nn2c(N)c(C#N)c(NCCc3ccn(C4CCC4CO)n3)nc12` (single isomer, unassigned; (+)) [Example 165a, (+)-7-amino-5-((2-(1-(2-(hydroxymethyl)cyclobutyl)-1H-pyrazol-3-yl)ethyl)amino)-2-methyl-3-propylpyrazolo[1,5-a]pyrimidine-6-carbonitrile], for which the IC50 in experiment [1] was over 15000 nM; in experiment [2], 2160 nM.
Taken in the same sequence, the figures for `CCc1c(C(F)F)nn2c(N)c(C#N)c(NCCc3ccn(C4CCC4CO)n3)nc12` (stereo not drawn) [Example 102, 7-amino-2-(difluoromethyl)-3-ethyl-5-((2-(1-(2-(hydroxymethyl)cyclobutyl)-1H-pyrazol-3-yl)ethyl)amino) pyrazolo[1,5-a]pyrimidine-6-carbonitrile] were 8300 nM and 804 nM.
In the same order, the values of `Cc1nn2c(N)c(C#N)c(NCCc3ccn(C4COCC4CO)n3)nc2c1Cl` (stereo not drawn) [Example 127, 7-amino-3-chloro-5-((2-(1-(4-(hydroxymethyl)tetrahydrofuran-3-yl)-1H-pyrazol-3-yl)ethyl)amino)-2-methylpyrazolo[1,5-a] pyrimidine-6-carbonitrile] are 2170 nM and 161 nM.
Regarding `CCc1c(C)nn2c(N)c(C#N)c(NCCc3ccn(C4CCC4CNCC(N)=O)n3)nc12` (stereo not drawn) [Example 134, 2-(((2-(3-(2-((7-amino-6-cyano-3-ethyl-2-methylpyrazolo[1,5-a]pyrimidin-5-yl)amino)ethyl)-1H-pyrazol-1-yl)cyclobutyl)methyl)amino) acetamide], the IC50 in experiment [1] was 2510 nM; in experiment [2], 475 nM.
In the case of `CCc1c(C)nn2c(N)c(C#N)c(NCCc3cccc(C(O)C(F)(F)F)n3)nc12` (stereo not drawn) [Example 135, 7-amino-3-ethyl-2-methyl-5-((2-(6-(2,2,2-trifluoro-1-hydroxyethyl)pyridine-2-yl)ethyl)amino) pyrazolo[1,5-a]pyrimidine-6 carbonitrile], the IC50 stood at 2220 nM in experiment [1] and 1310 nM in experiment [2].
Consider `CCCc1c(C)nn2c(N)c(C#N)c(NCCc3cccc(CO)n3)nc12` [Example 157, 7-amino-5-((2-(6-(hydroxymethyl)397yridine-2-yl)ethyl)amino)-2-methyl-3-propylpyrazolo[1,5-a]pyrimidine-6-carbonitrile], for which the IC50 in experiment [1] worked out at 2930 nM; in experiment [2], 1670 nM.
For `CCCc1c(C)nn2c(N)c(C#N)c(NCCc3ccn(C4COCC4CO)n3)nc12` (single isomer, unassigned; (-)) [Example 160b, (−) 7-amino-5-((2-(1-(4-(hydroxymethyl)tetrahydrofuran-3-yl)-1H-pyrazol-3-yl)ethyl)amino)-2-methyl-3-propylpyrazolo[1,5-a]pyrimidine-6-carbonitrile], the IC50 was 1250 nM in experiment [1] and 341 nM in experiment [2].
As to `CCc1c(C)nn2c(N)c(C#N)c(NCCc3cccn(CCSC)c3=O)nc12` [Example 142, 7-amino-3-ethyl-2-methyl-5-((2-(1-(2-(methylthio)ethyl)-2-oxo-1,2-dihydropyridin-3-yl)ethyl)amino)pyrazolo[1,5-a]pyrimidine-6-carbonitrile], the half-maximal inhibitory concentration (IC50) in experiment [1] is 1660 nM; in experiment [2], 141 nM.
`CCc1c(C)nn2c(N)c(C#N)c(NCCc3ccnn3CCCO)nc12` [Example 110, 7-amino-3-ethyl-5-((2-(1-(3-hydroxypropyl)-1H-pyrazol-5-yl)ethyl)amino)-2-methylpyrazolo[1,5-a]pyrimidine-6-carbonitrile]: the half-maximal inhibitory concentration (IC50) in experiment [1] and in experiment [2] was over 15000 nM each time.
For the molecule `Cc1nn2c(N)c(C#N)c(NCCc3ccn(CC4CC(O)C4)n3)nc2c1Cl` (single isomer, unassigned; (+)) [Example 83, (+)-7-amino-3-chloro-5-((2-(1-((3-hydroxycyclobutyl)methyl)-1H-pyrazol-3-yl)ethyl)amino)-2-methylpyrazolo[1,5-a]pyrimidine-6-carbonitrile], the half-inhibitory concentration (IC50) was 2650 nM in experiment [1] and 109 nM in experiment [2].
In the same order, the values of `Cc1nn2c(N)c(C#N)c(NCCc3cnn(C4(CO)CC4)c3)nc2c1Cl` [Example 73, 7-amino-3-chloro-5-((2-(1-(1-(hydroxymethyl)cyclopropyl)-1H-pyrazol-4-yl)ethyl)amino)-2-methylpyrazolo[1,5-a] pyrimidine-6-carbonitrile] are over 15000 nM and over 15000 nM.
As to `CCc1c(C)nn2c(N)c(C#N)c(NCCc3ccn(C4(CCN)CC4)n3)nc12` [Example 148, 7-amino-5-((2-(1-(1-(2-aminoethyl)cyclopropyl)-1H-pyrazol-3-yl)ethyl)amino)-3-ethyl-2-methylpyrazolo[1,5-a] pyrimidine-6-carbonitrile], the values for the half-inhibitory concentration (IC50) in experiment [1] and in experiment [2] were 2740 nM and 161 nM, respectively.
As to `Cc1nn2c(N)c(C#N)c(NCCc3cccc(CCO)n3)nc2c1C` [Example 152, 7-amino-5-((2-(6-(2-hydroxyethyl)pyridin-2-yl)ethyl)amino)-2,3-dimethylpyrazolo[1,5-a] pyrimidine-6-carbonitrile], the IC50 came to 1790 nM in experiment [1] and 209 nM in experiment [2].
For the molecule `Cc1nn2c(N)c(C#N)c(NCCc3ccn(C4(CCN)CC4)n3)nc2c1Cl` [Example 151, 7-amino-5-((2-(1-(1-(2-aminoethyl)cyclopropyl)-1H-pyrazol-3-yl)ethyl)amino)-3-chloro-2-methylpyrazolo[1,5-a]pyrimidine-6-carbonitrile], the figures for the IC50 in experiment [1] and in experiment [2] were 4610 nM and 95 nM, respectively.
For the molecule `CCc1c(C)nn2c(N)c(C#N)c(NCCc3ccn(CCCSC)n3)nc12` [Example 161, 7-amino-3-ethyl-2-methyl-5-((2-(1-(3-(methylthio)propyl)-1H-pyrazol-3-yl)ethyl)amino)pyrazolo[1,5-a]pyrimidine-6-carbonitrile], the values for the concentration for half-maximal inhibition (IC50) in experiment [1] and in experiment [2] were 3970 nM and 2770 nM, respectively.
For the molecule `Cc1nn2c(N)c(C#N)c(NCCc3ccn(C4(CNC(=O)CCO)CC4)n3)nc2c1Cl` [Example 99, N-((1-(3-(2-((7-amino-3-chloro-6-cyano-2-methylpyrazolo[1,5-a]pyrimidin-5-yl)amino)ethyl)-1H-pyrazol-1-yl)cyclopropyl)methyl)-3-hydroxypropanamide], the 50% inhibitory concentration (IC50) in experiment [1] amounted to 20000 nM; in experiment [2], 69 nM.
As to `CCCc1c(C)nn2c(N)c(C#N)c(NCCc3ccn(C4(CO)CC4)n3)nc12` [Example 158, 7-amino-5-((2-(1-(1-(hydroxymethyl)cyclopropyl)-1H-pyrazol-3-yl)ethyl)amino)-2-methyl-3-propylpyrazolo[1,5-a]pyrimidine-6-carbonitrile], the concentration for half-maximal inhibition (IC50) worked out at 3350 nM in experiment [1] and 805 nM in experiment [2].
For `CCc1c(C(F)F)nn2c(N)c(C#N)c(NCCc3cccn(CCO)c3=O)nc12` [Example 131, 7-amino-2-(difluoromethyl)-3-ethyl-5-((2-(1-(2-hydroxyethyl)-2-oxo-1,2-dihydropyridin-3-yl)ethyl)amino) pyrazolo[1,5-a]pyrimidine-6-carbonitrile], the IC50 is over 15000 nM in experiment [1] and 1460 nM in experiment [2].
In the same order, the values of `CCc1c(C)nn2c(N)c(C#N)c(NCCc3ccn(CCC[S+](C)[O-])n3)nc12` (single isomer, unassigned; (-)) [Example 162a, (−)-7-amino-3-ethyl-2-methyl-5-((2-(1-(3-(methylsulfinyl)propyl)-1H-pyrazol-3-yl)ethyl)amino)pyrazolo[1,5-a]pyrimidine-6-carbonitrile] are 5790 nM and 1880 nM.
For the molecule `CCc1c(C)nn2c(N)c(C#N)c(NCCc3cccn(CCCO)c3=O)nc12` [Example 113, 7-amino-3-ethyl-5-((2-(1-(3-hydroxypropyl)-2-oxo-1,2-dihydropyridin-3-yl)ethyl)amino)-2-methylpyrazolo[1,5-a]pyrimidine-6-carbonitrile], the IC50 was 1050 nM in experiment [1] and 187 nM in experiment [2].
Take `Cc1nn2c(N)c(C#N)c(NCCc3ccn(C4CCC4CO)n3)nc2c1C` (single isomer, unassigned; (+)) [Example 104a, (+)-7-amino-5-((2-(1-(2-(hydroxymethyl)cyclobutyl)-1H-pyrazol-3-yl)ethyl)amino)-2,3-dimethylpyrazolo[1,5-a]pyrimidine-6-carbonitrile]: the IC50 was 2260 nM in experiment [1] and 88 nM in experiment [2].
